# Measurements published in PMC4509728, “Crystal Structures Reveal that the Reaction Mechanism of Imidazoleglycerol-Phosphate Dehydratase Is Controlled by Switching Mn(II) Coordination” (Structure(London, England:1993), 2015).
# Biological target: T1, IGPD2 (construct B) (Arabidopsis thaliana, UniProt O23346, E73Q)
# T1 construct: gene HISN5B; construct B, residues 69-272, signal peptide removed and further N-terminal truncation; pET24a, E. coli BL21(DE3); homo 24mer, site formed by three chains
# T1 sequence (O23346 69-272 E73Q): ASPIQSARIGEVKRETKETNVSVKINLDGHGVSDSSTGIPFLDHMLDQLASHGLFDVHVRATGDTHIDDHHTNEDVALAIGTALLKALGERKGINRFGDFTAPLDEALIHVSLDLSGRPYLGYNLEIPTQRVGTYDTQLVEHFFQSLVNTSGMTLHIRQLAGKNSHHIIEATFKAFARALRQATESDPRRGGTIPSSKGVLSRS
# Assay: X-ray crystallography of the co-crystal ([…] Å form A)
# Type: binding
# Conditions: inactive mutant, Mn(II), mixed occupancy with 2R3S IGP at the same site
compound,measurement,value
O=P(O)(O)OC[C@H](O)[C@@H](O)c1cnc[nH]1 [2S3S diastereoisomer of IGP],X-ray crystallography of the co-crystal (1.12 Å form A),Both diastereoisomers bind at the same site
